The values that follow come from PMC4567993, “A Novel Trypsin Inhibitor-Like Cysteine-Rich Peptide from the Frog Lepidobatrachus laevis Containing Proteinase-Inhibiting Activity” (Natural Products and Bioprospecting, 2015).

No end group written: not given here.

The term Ki denotes a measure of affinity in units of concentration, obtained from inhibition or displacement.

One assay deals with microorganisms. The experiment in a line: Antimicrobial assay, overall statement. It is filed as cell-based. Particulars: recombinant LL-TIL; S. aureus, E. coli, B. subtilis, C. albicans tested. The method, then: (§1) For antimicrobial assays, several microorganisms including Gram positive bacterium S. aureus (ATCC 25923), […] and fungus C. albicans (ATCC 20032) were obtained from Kunming Medical College. They were first grown in LB (Luria–Bertani) broth or yeast extract–peptone–dextrose broth as our previous methods. MIC (minimal inhibitory concentration) of tested sample against these microorganisms was determined as previous reports. The MIC is defined as the lowest concentration of tested sample to inhibit microorganism growth.

In another assay the test system is trypsin. The experiment in a line: Trypsin inhibition, chromogenic substrate (serine protease inhibitory testing). It is filed as biochemical. The conditions noted are these: for Reciprocal reaction velocity of trypsin, 1/V av / Reaction velocity of trypsin, V av: pH 7.8, 37 °C, means of three duplicate experiments. The procedure: (§2) Effects of the tested samples on the hydrolysis of synthetic chromogenic substrates by different serine proteases were assayed in 0.05 M Tris–HCl, pH 7.8 (for trypsin, Sigma T4665; thrombin, Sigma T4393; chymotrypsin, Sigma C4129; elastase, Sigma E1250; plasmin, Sigma P1867) or pH 8.45 (for substilisin, Sigma P5380) buffer at 37 °C. The protease (trypsin, 10 nM; thrombin, 10 nM; chymotrypsin, 21 nM; elastase, 23 nM and substilisin, 30 nM) and different amounts of LL-TIL (final concentrations ranging from 0.0 to 20 μM) were pre-incubated for 10 min at 37 °C. […] The formation of p-nitroaniline was monitored continuously at 405 for 2 min. For chymotrypsin, the reaction was monitored at 253 nm. The inhibition constant Ki was determined according to the reported method.

The subject of assay [1] is elastase. Kind of assay: Elastase inhibition, chromogenic substrate. The format is biochemical. Particulars: elastase 23 nM; 0.05 M Tris-HCl pH 7.8, 37 °C; LL-TIL 0.0 to 20 μM; pre-incubated 10 min; data not shown.
Description: (§3) Presently, the biological role of proteinase inhibitory peptides in amphibian skins is explained mainly by two hypotheses. One is that several enzymes are involved in peptide precursor processing or peptide degradation in the skin and proteinase inhibitors negatively modulate the activity of these proteases to avoid premature degradation or release of skin peptides. The other hypothesis is that the peptides are surface anti-infective agent similar to AMPs because they inhibit extracellular proteases produced by invading bacteria. […] Further work is needed to address this issue.
as §2

Another assay deals with thrombin. Kind of assay: Thrombin inhibition, chromogenic substrate. Particulars: thrombin 10 nM; 0.05 M Tris-HCl pH 7.8, 37 °C; LL-TIL 0.0 to 20 μM; pre-incubated 10 min; data not shown. The format is biochemical.
Description: as §3, §2

A further assay deals with substilisin. Kind of assay: Substilisin inhibition, chromogenic substrate. The conditions noted are these: substilisin 30 nM; pH 8.45, 37 °C; LL-TIL 0.0 to 20 μM; pre-incubated 10 min; data not shown. The format is biochemical.
Description: as §3, §2

In assay [2] the test system is chymotrypsin. Kind of assay: Chymotrypsin inhibition, chromogenic substrate. It is filed as biochemical. Particulars: chymotrypsin 21 nM; 0.05 M Tris-HCl pH 7.8, 37 °C; monitored at 253 nm; LL-TIL 0.0 to 20 μM; pre-incubated 10 min; data not shown.
Description: as §3, §2

Assay [3] concerns Bacillus subtilis (ATCC 6633). The experiment in a line: Antimicrobial assay (MIC). The conditions noted are these: recombinant LL-TIL, data not shown. The format is cell-based. The method, then:
as §1

For assay [4], the system named is Candida albicans (ATCC 20032). The experiment in a line: Antimicrobial assay (MIC). It is filed as cell-based. Particulars: recombinant LL-TIL, ATCC 20032, fungus, data not shown. The procedure:
as §1

Assay [5] deals with Escherichia coli (ATCC 25922). The experiment in a line: Antimicrobial assay (MIC). It is filed as cell-based. Particulars: recombinant LL-TIL, ATCC 25922, Gram-negative, data not shown. The procedure:
as §1

In assay [6] the test system is Staphylococcus aureus (ATCC 25923). Kind of assay: Antimicrobial assay (MIC). The format is cell-based. The conditions noted are these: recombinant LL-TIL, ATCC 25923, Gram positive, data not shown. The method, then: as §1
A further assay relates to plasmin. Kind of assay: Plasmin inhibition, chromogenic substrate. The format is biochemical. The conditions noted are these: 0.05 M Tris-HCl pH 7.8, 37 °C; LL-TIL 0.0 to 20 μM; pre-incubated 10 min; data not shown.
Description: as §3, §2

The target of another assay is trypsin (Sigma T4665). Kind of assay: enzyme inhibition kinetics (chromogenic substrate, Dixon plot); trypsin 10 nM pre-incubated with LL-TIL for 10 min at 37 °C in 0.05 M Tris-HCl, pH 7.8; reaction started with substrate B-3133; p-nitroaniline followed at 405 for 2 min; Ki by Dixon plot from velocities at [S] = 0.2 and 0.4 mM.
Details of assay [7]: method as in PMID 16191451. The conditions noted are these: ref [15]; cited from earlier work.
In assay [8] the test system is chymotrypsin. On the set-up: method as in 2 sources, one per row (each row's own in cited_ref): ref [15] = [15]; PMID 16191451; doi:10.1016/j.peptides.2005.07.013; 15. Fogaca AC Almeida IC Eberlin MN Tanaka AS Bulet P Daffre S Peptides 2006 27 667 674 10.1016/j.peptides.2005.07.013 16191451 ||| ref [20] = [20]; PMID 23200835; doi:10.1016/j.bbrc.2012.11.056; 20. Kim BY Lee KS Wan H Zou FM Choi YS Yoon HJ Kwon HW Je YH Jin BR Biochem. Biophys. Res. Commun. 2013 430 144 149 10.1016/j.bbrc.2012.11.056 23200835. The conditions noted are these: ref [15]; cited from earlier work.

The subject of assay [9] is elastase. Details: method as in 3 sources, ref [14] = [14]; PMID 23533574; doi:10.1371/journal.pone.0057529; 14. Chen ZY Wang B Hu J Yang WS Cao ZJ Zhuo RX Li W Wu Y PLoS ONE 2013 8 e57529 10.1371/journal.pone.0057529 23533574 PMC3606364 ||| ref [15] = [15]; PMID 16191451; doi:10.1016/j.peptides.2005.07.013; 15. Fogaca AC Almeida IC Eberlin MN Tanaka AS Bulet P Daffre S Peptides 2006 27 667 674 10.1016/j.peptides.2005.07.013 16191451 ||| ref [20] = [20]; PMID 23200835; doi:10.1016/j.bbrc.2012.11.056; 20. Kim BY Lee KS Wan H Zou FM Choi YS Yoon HJ Kwon HW Je YH Jin BR Biochem. Biophys. Res. Commun. 2013 430 144 149 10.1016/j.bbrc.2012.11.056 23200835. Particulars: ref [15]; cited from earlier work.

Regarding “IRCPKDKIYKFCGSPCPPSCKDLTPNCIAVCKKGCFCRDGTVDNNHGKCVKKENC (disulfide (positions not given here)) [LL-TIL]”, the “antimicrobial activity (overall)” value in the assay on microorganisms is on record as “no antimicrobial activity”. Moreover, in the assay with trypsin (0.05 M Tris-HCl pH 7.8, 37 °C, trypsin 10 nM, LL-TIL 0.0 to 20 μM), the “inhibition of trypsin (in words)” value was “inhibited the activity of trypsin”. Moreover, the “Reciprocal reaction velocity of trypsin, 1/V av” value was 5.2826 in the assay on trypsin ([I] = 12.987 μM, [S] = 0.2 mM, 1/V av at [I] 0: 3.7864); 3.8700 in the assay on trypsin ([I] = 12.987 μM, [S] = 0.4 mM, 1/V av at [I] 0: 2.7352); 7.3116 with trypsin ([I] = 25.974 μM, [S] = 0.2 mM, 1/V av at [I] 0: 3.7864); 4.8481 in the assay with trypsin ([I] = 25.974 μM, [S] = 0.4 mM, 1/V av at [I] 0: 2.7352). For the same substance, the “Reaction velocity of trypsin, V av” value with trypsin ([I] = 12.987 μM, [S] = 0.2 mM, V av at [I] 0: 0.2641) came to 0.1893; with trypsin ([I] = 12.987 μM, [S] = 0.4 mM, V av at [I] 0: 0.3656) it was 0.2584; in the assay on trypsin ([I] = 25.974 μM, [S] = 0.2 mM, V av at [I] 0: 0.2641), 0.1368; with trypsin ([I] = 25.974 μM, [S] = 0.4 mM, V av at [I] 0: 0.3656) it was 0.2063. Moreover, on trypsin (recombinant LL-TIL, trypsin 10 nM, 0.05 M Tris-HCl pH 7.8, 37 °C, pre-incubated 10 min, chromogenic substrate B-3133, p-nitroaniline at 405 for 2 min, Dixon plot, [S] 0.2 and 0.4 mM), the inhibition constant (Ki) was found to be 16.5 µM. The “inhibition of hydrolysis of chromogenic substrate by elastase” value in the assay with elastase [1] is “did not inhibit”. Besides, in the assay with thrombin, the “inhibition of hydrolysis of chromogenic substrate by thrombin” value is listed as “did not inhibit”. Moreover, in the assay on substilisin, the “inhibition of hydrolysis of chromogenic substrate by substilisin” value was “did not inhibit”. In addition, the “inhibition of hydrolysis of chromogenic substrate by chymotrypsin” value in the assay with chymotrypsin [2] is “did not inhibit”. Moreover, the “antimicrobial ability against B. subtilis” value in assay [3] is given as “no antimicrobial abilities”. The “antimicrobial ability against C. albicans” value in [4] was “no antimicrobial abilities”. Besides, the “antimicrobial ability against E. coli” value in assay [5] is recorded as “no antimicrobial abilities”. Also, the “antimicrobial ability against S. aureus” value in assay [6] was “no antimicrobial abilities”. In the assay with plasmin, the “inhibition of hydrolysis of chromogenic substrate by plasmin” value is “did not inhibit”.

“LL-TIL (trypsin inhibitor-like cysteine-rich peptide from Lepidobatrachus laevis), recombinant mature peptide” came in with a Ki in the assay with trypsin (Sigma T4665) of 16.5 µM.

On to “Ixodidin: from hemocytes of the cattle tick”, for which the antimicrobial activity entry in [7] was “weak antimicrobial activities”. For the same substance, in the assay on chymotrypsin [8], the inhibition of chymotrypsin entry was “able to inhibit”. Also, in the assay on elastase [9], the inhibition of elastase result is “able to inhibit”.
